# From patent publication US20200207989A1, “FLUORESCENT PROBE FOR ALDH3A1 DETECTION” (The University of Tokyo, priority 2016, published 2020)
# What was measured:
# ALDH3A1 = target: T1, ALDH3A1 (Homo sapiens, UniProt P30838); test: Reactivity of probes to recombinant ALDH3A1 (UPLC/MS/MS); format: biochemical; settings: 10-100 nM ALDH, 10-80 μM compound, Tris buffer pH 7.5, 30 minutes at 37° C., ◯/X not defined by a legend
# T1 construct: purchased
# T1 sequence (P30838 1-453): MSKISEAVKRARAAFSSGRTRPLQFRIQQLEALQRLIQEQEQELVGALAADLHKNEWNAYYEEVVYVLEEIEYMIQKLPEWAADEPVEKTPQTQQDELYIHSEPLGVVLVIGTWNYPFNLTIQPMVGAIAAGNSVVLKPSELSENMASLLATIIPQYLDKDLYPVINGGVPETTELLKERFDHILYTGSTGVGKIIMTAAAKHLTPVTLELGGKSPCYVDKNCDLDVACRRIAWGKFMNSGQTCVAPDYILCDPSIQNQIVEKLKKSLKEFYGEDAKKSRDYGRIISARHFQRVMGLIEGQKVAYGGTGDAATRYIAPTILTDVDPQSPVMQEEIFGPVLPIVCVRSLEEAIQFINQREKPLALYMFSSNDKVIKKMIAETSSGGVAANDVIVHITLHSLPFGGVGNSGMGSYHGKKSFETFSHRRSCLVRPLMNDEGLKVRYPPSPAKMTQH
# Procedure: (§1) Human recombinant ALDH1A1/1A3/3A1 was purchased, and 100 mM of KCL, 2 mM of DTT, 1 mM of NAD(P), 10-100 nM of each ALDH, and 10-80 μM of each compound were mixed in Tris buffer (100 mM, pH 7.5), reacted for 30 minutes at 37° C., an equal amount of acetonitrile added, and the reaction stopped. The reaction solution was analyzed by UPLC/MS/MS (Waters). The UPCL chromatogram was carried out over five minutes at a flow rate of 800 μL/min by a linear gradient from 5% acetonitrile 0.01 M ammonium formate/water to 95% acetonitrile 0.01 M ammonium formate/water.
# ALDH1A1 = target: T2, ALDH1A1 (Homo sapiens, UniProt P00352); test: Reactivity of probes to recombinant ALDH1A1 (UPLC/MS/MS detection of aldehyde and carboxylic acid forms); format: biochemical; settings: 10-100 nM ALDH, 10-80 μM compound, Tris buffer pH 7.5, 30 minutes at 37° C., ◯/X not defined by a legend
# T2 construct: purchased
# T2 sequence (P00352 1-501): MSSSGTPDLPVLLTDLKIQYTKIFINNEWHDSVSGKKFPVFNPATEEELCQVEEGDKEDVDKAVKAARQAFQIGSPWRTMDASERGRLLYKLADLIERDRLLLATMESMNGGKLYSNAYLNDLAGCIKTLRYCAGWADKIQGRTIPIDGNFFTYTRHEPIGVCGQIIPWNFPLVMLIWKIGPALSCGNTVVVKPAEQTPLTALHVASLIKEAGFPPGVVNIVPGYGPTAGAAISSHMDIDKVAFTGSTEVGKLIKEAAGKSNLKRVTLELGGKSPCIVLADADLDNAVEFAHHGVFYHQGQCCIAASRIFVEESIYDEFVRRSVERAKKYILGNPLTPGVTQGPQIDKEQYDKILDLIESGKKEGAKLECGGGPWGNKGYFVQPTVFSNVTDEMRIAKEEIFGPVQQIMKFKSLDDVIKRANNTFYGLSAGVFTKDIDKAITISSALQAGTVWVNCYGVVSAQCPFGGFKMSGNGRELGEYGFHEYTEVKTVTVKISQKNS
# Procedure: as §1, with “formate/water. An aldehyde-form and carboxylic acid-form probe were detected by the absorbance at a wavelength of 504 nm, and m/z of the MS spectrum at each peak was confirmed to agree with the expected m/z.” for “formate/water.”
# OE21 cell line = test: Cell imaging of OE21 cells against CB7 negative control; format: cell-based; settings: probe 5: 40 μM, 90 minutes at 37° C., CB7 10 μM control
# Procedure: 40 μM of probe 5 was added to culture medium (RPMI 1640, 10% FBS, 15 mM HEPES, phenol red-free). After culturing for 90 minutes at 37° C., the cells were washed using a chilled medium and examined under a confocal microscope. A sample with a specific ALDH3A1 inhibitor (1-[(4-fluorophenyl)sulfonyl]-2-methyl-1H-benzimidazole, CB7, 10 μM) added served as a negative control. Excitation was provided by a 488 nm laser, and observation was carried out at wavelengths of […] in detection.
# [1] = HPLC (LC/MS) retention time as measure of hydrophilicity / membrane permeability; format: physicochemical; settings: C18 column, 20% B 2.5 min, 20%-->100% B 5 min, 500 μL/min, neutral conditions, mean±SD of three tests
# Procedure: In the present invention, it is preferable to use the retention time on an HPLC chromatogram as the measure of hydrophilicity.
# HPLC conditions: taking solvent A to be 0.01 M ammonium formate/water and solvent B to be 80% acetonitrile 0.01 M ammonium formate/water, chromatography is carried out under conditions of 20% solvent B for 2.5 minutes followed by a 5-minute linear gradient of solvent B from 20% to 100% (flow rate 500 μL/min).
# A C18 column (HP 3 μm, inner diameter: 2.1 mm, length: 150 mm, GL Science), for example, can be used suitably as the column.
# The water solubility was verified by LC/MS under neutral conditions to compare the membrane permeability of the five probes produced above and ALDEFLUOR. The reaction was stopped after advancing the reaction to the point that each probe was present as both a carboxylic acid form and an aldehyde form using a suitable isoform and concentration of ALDH, and analysis was conducted by LC/MS (Agilent 1200/6130 quadrupole LC/MS system). A C18 column (HP 3 μm, inner diameter: 2.1 mm, length: 150 mm, GL Science) was used as the column. HPLC chromatograms were carried out by 20% B for 2.5 minutes followed by a five-minute linear gradient (flow rate: 500 μL/min) from 20% to 100% B, taking solvent A to be 0.01 M ammonium formate/water and solvent B to be 80% acetonitrile 0.01 M ammonium formate/water. The probe containing BODIPY was detected by the absorbance at a wavelength of 504 nm and the probe containing TG at a wavelength of 495 nm, and m/z of the MS spectrum at each peak was confirmed to agree with the expected m/z. Three independent tests were run, and the mean±SD was calculated. […] Given that imaging of probe 1 was not successful, there was thought to be a threshold at which the membrane permeability changes rapidly between this 6.741 minutes and 7.098 minutes (band in FIG. 2).
substance,measurement,setting,value
"N-(4-formylbenzyl)-3-(1,3-dimethyl-4,4-difluoro-4-bora-3a,4a-diaza-s-indacen-5-yl)-propionamide [Probe 1]",Reactivity to ALDH3A1,ALDH3A1,◯
same,Reactivity to ALDH3A1,ALDH3A1; listed as Compound 1,reacted with all three of the isoforms tested
same,Reactivity to ALDH1A1,ALDH1A1,◯
same,Reactivity to ALDH1A1,ALDH1A1; listed as Compound 1,reacted with all three of the isoforms tested
same,Brightness of cells in imaging compared to negative control (CB7),OE21 cell line,no evident difference in brightness could be found in comparison to the negative control
same,"Retention Time, Aldehyde form",[1],8.874 ± 0.000 min
same,"Retention Time, carboxylate (carboxylic acid form)",[1],7.098 ± 0.001 min
same,"Retention Time, carboxylate (carboxylic acid form)",[1]; listed as probe 1,7.098 min
